In patent US12043599B2, “Herbicidal compounds” (SYNGENTA PARTICIPATIONS AG, priority 2018, dated 2024):

How the values were obtained:
Format in all cases: in vivo
Conditions in all cases: 250 g/h, evaluated after 13 days
[1] = test system: Alopecurus myosuroides (ALOMY); experiment: Pre-emergence herbicidal glasshouse test, percentage damage
Protocol: (§1) Seeds of a variety of test species are sown in standard soil in pots (Lolium perenne (LOLPE), Setaria faberi (SETFA), Alopecurus myosuroides (ALOMY), Echinochloa crus-galli (ECHCG), Avena fatua (AVEFA)). After cultivation for one day (pre-emergence) or after 8 days cultivation (post-emergence) under controlled conditions in a glasshouse (at 24/16° C., day/night; 14 hours light; 65% humidity), the plants are sprayed with an aqueous spray solution derived from the formulation of the technical active ingredient in acetone/water (50:50) solution containing 0.5% Tween 20 (polyoxyethelyene sorbitan monolaurate, CAS RN 9005-64-5). Compounds are applied at […]. The test plants are then grown in a glasshouse under controlled conditions in a glasshouse (at 24/16° C., day/night; 14 hours light; 65% humidity) and watered twice daily. After 13 days for pre and post-emergence, the test is evaluated for the percentage damage caused to the plant. The biological activities are shown in the following table on a five point scale (5=80-100%; 4=60-79%; 3=40-59%; 2=20-39%; 1=0-19%).

[2] = test system: Avena fatua (AVEFA); experiment: as above
Protocol: as §1

[3] = test system: Echinochloa crus-galli (ECHCG); experiment: as above
Protocol: as §1

[4] = test system: Lolium perenne (LOLPE); experiment: as above
Protocol: as §1

[5] = test system: Setaria faberi (SETFA); experiment: as above
Protocol: as §1

[6] = test system: Setaria faberi (SETFA); experiment: Post-emergence herbicidal glasshouse test, percentage damage
Protocol: as §1
Using procedures outlines above, wheat and barley crop plants and a weed species (SETFA) are treated post-emergence with compound A11 of the present invention or comparator compound C1 (Compound A-38 from WO2014/096289) at the application rates indicated. The compounds were also applied to wheat in conjunction with the safener compound cloquintocet-mexyl (CQC) at 50 g/ha.

[7] = test system: Avena fatua (AVEFA); experiment: as above
Protocol: as §1

[8] = test system: Echinochloa crus-galli (ECHCG); experiment: as above
Protocol: as §1

[9] = test system: Lolium perenne (LOLPE); experiment: as above
Protocol: as §1

| SMILES | ALOMY PRE percentage damage (five point scale) [1] | AVEFA PRE percentage damage (five point scale) [2] | ECHCG PRE percentage damage (five point scale) [3] | LOLPE PRE percentage damage (five point scale) [4] | SETFA PRE percentage damage (five point scale) [5] | SETFA POST percentage damage (five point scale) [6] | AVEFA POST percentage damage (five point scale) [7] | ECHCG POST percentage damage (five point scale) [8] | LOLPE POST percentage damage (five point scale) [9] |
| --- | --- | --- | --- | --- | --- | --- | --- | --- | --- |
| CC#Cc1cc(C)c(C2C(=O)CC3(CCN(C(=O)c4nc(OC)n(C)n4)CC3)CC2=O)c(C)c1 [Compound A105] | 5 (5=80-100%) | 5 (5=80-100%) | 5 (5=80-100%) | 5 (5=80-100%) | 5 (5=80-100%) | 5 (5=80-100%) | 5 (5=80-100%) | 3 (3=40-59%) | 5 (5=80-100%) |
| CC#Cc1cc(C)c(C2C(=O)CC3(CCN(C(=O)c4nn(C)nc4C)CC3)CC2=O)c(C)c1 [Compound A134] | – | 5 (5=80-100%) | 5 (5=80-100%) | 5 (5=80-100%) | 5 (5=80-100%) | 5 (5=80-100%) | 5 (5=80-100%) | 5 (5=80-100%) | 5 (5=80-100%) |
| CC#Cc1cc(C)c(C2C(=O)CC3(CCN(C(=O)c4csnn4)CC3)CC2=O)c(C)c1 [Compound A135] | – | 5 (5=80-100%) | 5 (5=80-100%) | 5 (5=80-100%) | 5 (5=80-100%) | 5 (5=80-100%) | 5 (5=80-100%) | 5 (5=80-100%) | 5 (5=80-100%) |
| CC#Cc1cc(C)c(C2C(=O)CC3(CCN(C(=O)c4ccnn4C)CC3)CC2=O)c(C)c1 [Compound A136] | – | 5 (5=80-100%) | 5 (5=80-100%) | 5 (5=80-100%) | 5 (5=80-100%) | 5 (5=80-100%) | 5 (5=80-100%) | 5 (5=80-100%) | 5 (5=80-100%) |
| CC#Cc1cc(C)c(C2C(=O)CC3(CCN(C(=O)c4nccnc4C)CC3)CC2=O)c(C)c1 [Compound A138] | – | 5 (5=80-100%) | 5 (5=80-100%) | 5 (5=80-100%) | 5 (5=80-100%) | 5 (5=80-100%) | 5 (5=80-100%) | 5 (5=80-100%) | 5 (5=80-100%) |
| CC#Cc1cc(C)c(C2C(=O)CC3(CCN(C(=O)C4CCCO4)CC3)CC2=O)c(C)c1 (stereo not drawn) [Compound A139] | – | 5 (5=80-100%) | 5 (5=80-100%) | 5 (5=80-100%) | 5 (5=80-100%) | 5 (5=80-100%) | 5 (5=80-100%) | 5 (5=80-100%) | 5 (5=80-100%) |
| CC#Cc1cc(C)c(C2C(=O)CC3(CCN(C(=O)NC(=O)C4CC4)CC3)CC2=O)c(C)c1 [Compound A141] | – | 4 (4=60-79%) | 5 (5=80-100%) | 5 (5=80-100%) | 5 (5=80-100%) | 5 (5=80-100%) | 5 (5=80-100%) | 5 (5=80-100%) | 5 (5=80-100%) |
| CC#Cc1cc(C)c(C2C(=O)CC3(CCN(C(=O)NC(=O)C(C)C)CC3)CC2=O)c(C)c1 [Compound A142] | – | 4 (4=60-79%) | 5 (5=80-100%) | 5 (5=80-100%) | 5 (5=80-100%) | 5 (5=80-100%) | 5 (5=80-100%) | 5 (5=80-100%) | 5 (5=80-100%) |
| CC#Cc1cc(C)c(C2C(=O)CC3(CCN(C4=NOC(C)(C)C4)CC3)CC2=O)c(C)c1 [Compound A143] | – | 4 (4=60-79%) | 5 (5=80-100%) | 5 (5=80-100%) | 5 (5=80-100%) | 5 (5=80-100%) | 5 (5=80-100%) | 5 (5=80-100%) | 5 (5=80-100%) |
| CC#Cc1cc(C)c(C2=C(OC(=O)c3cccnc3)CC3(CCN(C(=O)c4cccnc4)CC3)CC2=O)c(C)c1 [Compound P36] | – | 4 (4=60-79%) | 5 (5=80-100%) | 5 (5=80-100%) | 5 (5=80-100%) | 5 (5=80-100%) | 5 (5=80-100%) | 5 (5=80-100%) | 5 (5=80-100%) |
| CC#Cc1cc(C)c(C2=C(OC(=O)OC)CC3(CCN(C(=O)c4ccncc4)CC3)CC2=O)c(C)c1 [Compound P45] | – | 5 (5=80-100%) | 5 (5=80-100%) | 5 (5=80-100%) | 5 (5=80-100%) | 5 (5=80-100%) | 5 (5=80-100%) | 5 (5=80-100%) | 5 (5=80-100%) |
| CC#Cc1cc(C)c(C2=C(OC(=O)OC)CC3(CCN(C(=O)NC(=O)c4ccccn4)CC3)CC2=O)c(C)c1 [Compound P46] | – | 2 (2=20-39%) | 5 (5=80-100%) | 5 (5=80-100%) | 5 (5=80-100%) | 5 (5=80-100%) | 5 (5=80-100%) | 5 (5=80-100%) | 5 (5=80-100%) |
| CC#Cc1cc(C)c(C2=C(OC(=O)OC)CC3(CCN(C(=O)Cc4ccccn4)CC3)CC2=O)c(C)c1 [Compound P47] | – | 5 (5=80-100%) | 5 (5=80-100%) | 5 (5=80-100%) | 5 (5=80-100%) | 5 (5=80-100%) | 5 (5=80-100%) | 5 (5=80-100%) | 5 (5=80-100%) |
